# Test results taken from article doi:10.1101/2024.09.05.611349v1 (biorxiv, 2024).
# Like-named read-outs stand apart in the source and are kept apart here.
# Key:
# [1] = test system: Enterococcus faecalis EFA 15-1; test: microbe, parasite or virus in culture; parameters: species or system gram-positive clinical isolates; conditions: Enterococcus faecalis
# [2] = test system: Enterococcus faecalis EFA 15-57; test: microbe, parasite or virus in culture; parameters: species or system gram-positive clinical isolates; conditions: Enterococcus faecalis
# [3] = test system: Enterococcus faecalis EFA 15-66; test: microbe, parasite or virus in culture; parameters: species or system gram-positive clinical isolates; conditions: Enterococcus faecalis
# [4] = test system: Enterococcus faecium EFM 15-11; test: microbe, parasite or virus in culture; parameters: species or system gram-positive clinical isolates; conditions: Enterococcus faecium
# [5] = test system: Enterococcus faecium EFM 15-1; test: microbe, parasite or virus in culture; parameters: species or system gram-positive clinical isolates; conditions: Enterococcus faecium
# [6] = test system: Enterococcus faecium EFM 15-7; test: microbe, parasite or virus in culture; parameters: species or system gram-positive clinical isolates; conditions: Enterococcus faecium
# [7] = test system: Enterococcus faecium EFM 15-8; test: microbe, parasite or virus in culture; parameters: species or system gram-positive clinical isolates; conditions: Enterococcus faecium
# [8] = test system: Enterococcus faecium EFM 15-9; test: microbe, parasite or virus in culture; parameters: species or system gram-positive clinical isolates; conditions: Enterococcus faecium
# [9] = test system: Staphylococcus aureus MRSA 15-1; test: microbe, parasite or virus in culture; parameters: species or system gram-positive clinical isolates; conditions: Staphylococcus aureus, MRSA
# [10] = test system: Staphylococcus aureus MRSA 15-3; test: microbe, parasite or virus in culture; parameters: species or system gram-positive clinical isolates; conditions: Staphylococcus aureus, MRSA
# [11] = test system: Staphylococcus aureus MRSA 16-1; test: microbe, parasite or virus in culture; parameters: species or system gram-positive clinical isolates; conditions: Staphylococcus aureus, MRSA
# [12] = test system: Staphylococcus aureus MRSA 17-1; test: microbe, parasite or virus in culture; parameters: species or system gram-positive clinical isolates; conditions: Staphylococcus aureus, MRSA
# [13] = test system: Staphylococcus aureus MRSA 17-6; test: microbe, parasite or virus in culture; parameters: species or system gram-positive clinical isolates; conditions: Staphylococcus aureus, MRSA
# [14] = test system: Staphylococcus aureus MSSA 15-1; test: microbe, parasite or virus in culture; parameters: species or system gram-positive clinical isolates; conditions: Staphylococcus aureus, MSSA
# [15] = test system: Staphylococcus aureus MSSA 15-6; test: microbe, parasite or virus in culture; parameters: species or system gram-positive clinical isolates; conditions: Staphylococcus aureus, MSSA
# [16] = test system: Staphylococcus aureus MSSA 15-7; test: microbe, parasite or virus in culture; parameters: species or system gram-positive clinical isolates; conditions: Staphylococcus aureus, MSSA
# [17] = test system: Staphylococcus aureus MSSA 15-8; test: microbe, parasite or virus in culture; parameters: species or system gram-positive clinical isolates; conditions: Staphylococcus aureus, MSSA
# [18] = test system: Staphylococcus epidermidis MRSE 15-2; test: microbe, parasite or virus in culture; parameters: species or system gram-positive clinical isolates; conditions: Staphylococcus epidermidis, MRSE
# [19] = test system: Staphylococcus epidermidis MRSE 15-3; test: microbe, parasite or virus in culture; parameters: species or system gram-positive clinical isolates; conditions: Staphylococcus epidermidis, MRSE
# [20] = test system: Staphylococcus epidermidis MRSE 15-78; test: microbe, parasite or virus in culture; parameters: species or system gram-positive clinical isolates; conditions: Staphylococcus epidermidis, MRSE
# [21] = test system: Staphylococcus epidermidis MRSE 15-80; test: microbe, parasite or virus in culture; parameters: species or system gram-positive clinical isolates; conditions: Staphylococcus epidermidis, MRSE
# [22] = test system: Staphylococcus epidermidis MRSE 15-81; test: microbe, parasite or virus in culture; parameters: species or system gram-positive clinical isolates; conditions: Staphylococcus epidermidis, MRSE
# [23] = test system: Staphylococcus epidermidis MRSE 15-83; test: microbe, parasite or virus in culture; parameters: species or system gram-positive clinical isolates; conditions: Staphylococcus epidermidis, MRSE
# [24] = test system: Staphylococcus epidermidis MSSE 15-1; test: microbe, parasite or virus in culture; parameters: species or system gram-positive clinical isolates; conditions: Staphylococcus epidermidis, MSSE151, read-out: MIC(μg/ml) / 1b
# S. aureus ATCC 29213 = test: microbe, parasite or virus in culture; conditions: Staphylococcus aureus, ATCC29213, read-out: MIC (µg/mL)
# in vitro = conditions: Mouse liver microsomes
# [25] = read-out: MIC(μg/ml) / vancomycin
structure (smiles),measurement,setting,value
"CCCCCOc1ccc(C(=O)NNC(=S)NC(C)=O)cc1 [1b, N-(2-(4-(n-pentoxy)benzoyl)hydrazine-1-carbonothioyl)acetamide]",MIC,"[1]; EFA151, read-out: MIC(μg/ml) / 1b",8 µg/mL
same,MIC,"[2]; EFA1557, read-out: MIC(μg/ml) / 1b",4 µg/mL
same,MIC,"[3]; EFA1566, read-out: MIC(μg/ml) / 1b",4 µg/mL
same,MIC,"[4]; EFM1511, read-out: MIC(μg/ml) / 1b",4 µg/mL
same,MIC,"[5]; EFM151, read-out: MIC(μg/ml) / 1b",8 µg/mL
same,MIC,"[6]; EFM157, read-out: MIC(μg/ml) / 1b",2 µg/mL
same,MIC,"[7]; EFM158, read-out: MIC(μg/ml) / 1b",2 µg/mL
same,MIC,"[8]; EFM159, read-out: MIC(μg/ml) / 1b",4 µg/mL
same,MIC,[9]; read-out: MIC(μg/ml) / 1b,4 µg/mL
same,MIC,[10]; read-out: MIC(μg/ml) / 1b,4 µg/mL
same,MIC,[11]; read-out: MIC(μg/ml) / 1b,2 µg/mL
same,MIC,[12]; read-out: MIC(μg/ml) / 1b,2 µg/mL
same,MIC,[13]; read-out: MIC(μg/ml) / 1b,2 µg/mL
same,MIC,[14]; read-out: MIC(μg/ml) / 1b,1 µg/mL
same,MIC,[15]; read-out: MIC(μg/ml) / 1b,2 µg/mL
same,MIC,[16]; read-out: MIC(μg/ml) / 1b,2 µg/mL
same,MIC,[17]; read-out: MIC(μg/ml) / 1b,2 µg/mL
same,MIC,[18]; read-out: MIC(μg/ml) / 1b,4 µg/mL
same,MIC,[19]; read-out: MIC(μg/ml) / 1b,2 µg/mL
same,MIC,[20]; read-out: MIC(μg/ml) / 1b,2 µg/mL
same,MIC,[21]; read-out: MIC(μg/ml) / 1b,1 µg/mL
same,MIC,[22]; read-out: MIC(μg/ml) / 1b,0.5 µg/mL
same,MIC,[23]; read-out: MIC(μg/ml) / 1b,1 µg/mL
same,MIC,[24],1 µg/mL
same,MIC,S. aureus ATCC 29213,0.78 µg/mL
same,Mouse liver microsomes T1/2,in vitro,28.3 min
CN[C@H](CC(C)C)C(=O)N[C@H]1C(=O)N[C@@H](CC(N)=O)C(=O)N[C@H]2C(=O)N[C@H]3C(=O)N[C@H](C(=O)N[C@H](C(=O)O)c4cc(O)cc(O)c4-c4cc3ccc4O)[C@H](O)c3ccc(c(Cl)c3)Oc3cc2cc(c3O[C@@H]2O[C@H](CO)[C@@H](O)[C@H](O)[C@H]2O[C@H]2C[C@](C)(N)[C@H](O)[C@H](C)O2)Oc2ccc(cc2Cl)[C@H]1O [vancomycin],MIC,"[1]; EFA151, read-out: MIC(μg/ml) / vancomycin",0.5 µg/mL
same,MIC,"[2]; EFA1557, read-out: MIC(μg/ml) / vancomycin",2 µg/mL
same,MIC,"[3]; EFA1566, read-out: MIC(μg/ml) / vancomycin",2 µg/mL
same,MIC,"[4]; EFM1511, read-out: MIC(μg/ml) / vancomycin",0.5 µg/mL
same,MIC,"[5]; EFM151, read-out: MIC(μg/ml) / vancomycin",1 µg/mL
same,MIC,"[6]; EFM157, read-out: MIC(μg/ml) / vancomycin",0.5 µg/mL
same,MIC,"[7]; EFM158, read-out: MIC(μg/ml) / vancomycin",0.5 µg/mL
same,MIC,"[8]; EFM159, read-out: MIC(μg/ml) / vancomycin",0.5 µg/mL
same,MIC,[9]; [25],2 µg/mL
same,MIC,[10]; [25],1 µg/mL
same,MIC,[11]; [25],1 µg/mL
same,MIC,[12]; [25],0.5 µg/mL
same,MIC,[13]; [25],0.5 µg/mL
same,MIC,[14]; [25],1 µg/mL
same,MIC,[15]; [25],0.5 µg/mL
same,MIC,[16]; [25],1 µg/mL
same,MIC,[17]; [25],0.5 µg/mL
same,MIC,[18]; [25],2 µg/mL
same,MIC,[19]; [25],2 µg/mL
same,MIC,[20]; [25],1 µg/mL
same,MIC,[21]; [25],2 µg/mL
same,MIC,[22]; [25],2 µg/mL
same,MIC,[23]; [25],1 µg/mL
